Results reported in patent US11839613B2, “Pyrimidine derivatives as PGE2 receptor modulators” (IDORSIA PHARMACEUTICALS LTD, priority 2017, dated 2023).

How the values were obtained:
PTGER2 (EP2) = PTGER2 (EP2) (Homo sapiens (Human), UniProt P43116); assay: hEP2 b-arrestin assay (PathHunter HEK 293 PTGER2 b-arrestin cells); type: cell-based; details: antagonistic activity, beta-arrestin assay; read-out: hEP2 b-arr IC50
Experimental: Plate is pre-incubated 15 minutes at 37° C. Then five microliters of PGE2 (final conc. 5 μM) are transferred into the assay plate. Plate is incubated 120 minutes at 37° C.
(each concentration is measured in duplicate)

EP2 = EP2 (Homo sapiens (Human), UniProt P43116); assay: hEP2 cAMP assay (SF295 glioblastoma cells, HTRF cAMP); type: cell-based; details: antagonistic activity
Chain of EP2 (P43116 whole entry): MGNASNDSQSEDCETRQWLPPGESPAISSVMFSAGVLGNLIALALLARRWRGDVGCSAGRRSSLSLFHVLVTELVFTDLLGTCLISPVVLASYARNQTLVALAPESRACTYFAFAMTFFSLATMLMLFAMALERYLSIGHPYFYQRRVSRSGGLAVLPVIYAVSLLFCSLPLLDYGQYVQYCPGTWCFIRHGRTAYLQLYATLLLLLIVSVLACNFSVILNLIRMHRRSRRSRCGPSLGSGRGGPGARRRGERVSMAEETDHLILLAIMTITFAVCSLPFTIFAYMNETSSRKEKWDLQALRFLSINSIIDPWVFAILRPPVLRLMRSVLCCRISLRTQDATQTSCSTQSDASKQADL
In short: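 PGE2-driven cAMP accumulation was measured by HTRF in SF295 cells, which express endogenous EP2 only. Cells in assay buffer with 2 mM IBMX were pre-incubated 45 min at RT, then incubated 30 min at RT. Detection used competition between cellular cAMP and d2-cAMP for a cryptate anti-cAMP antibody.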

EP4 = EP4 (Homo sapiens (Human), UniProt P35408); assay: hEP4 cAMP assay (BT549 breast cancer cells, HTRF cAMP); type: cell-based; details: antagonistic activity, PGE2 6 nM
Chain of EP4 (P35408 whole entry): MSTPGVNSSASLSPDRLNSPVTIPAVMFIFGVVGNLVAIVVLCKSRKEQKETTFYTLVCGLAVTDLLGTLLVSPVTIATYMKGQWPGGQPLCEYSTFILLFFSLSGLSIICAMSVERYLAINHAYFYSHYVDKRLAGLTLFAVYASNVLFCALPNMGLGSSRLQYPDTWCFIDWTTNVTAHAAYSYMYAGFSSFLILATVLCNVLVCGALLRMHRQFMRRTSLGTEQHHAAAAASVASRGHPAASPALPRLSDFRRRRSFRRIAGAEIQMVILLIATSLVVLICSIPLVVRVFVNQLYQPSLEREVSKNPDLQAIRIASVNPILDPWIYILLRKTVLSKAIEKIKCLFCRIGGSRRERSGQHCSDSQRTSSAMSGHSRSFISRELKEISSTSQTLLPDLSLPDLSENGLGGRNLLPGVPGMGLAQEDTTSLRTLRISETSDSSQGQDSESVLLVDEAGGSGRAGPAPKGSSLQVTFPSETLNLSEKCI
In short: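 BT549 breast cancer cells (endogenous EP4) in HBSS/20 mM HEPES/0.2% BSA/2 mM IBMX preincubated 45 min at RT with compound, then stimulated 30 min at RT with 6 nM PGE2 (final). cAMP read by competitive HTRF immunoassay, signal inversely proportional to cAMP.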

PTGER4 (EP4) = PTGER4 (EP4) (Homo sapiens (Human), UniProt P35408); assay: cell-based
Chain of PTGER4 (EP4) (P35408 whole entry): as above

Chain of PTGER2 (EP2) (P43116 whole entry): as the sequence (P43116 whole entry) above

SMILES	IC50 (PTGER2 (EP2)) [µM]	IC50 (EP2) [µM]	IC50 (EP4) [µM]	IC50 (PTGER4 (EP4)) [µM]	IC50 (EP4; BT549 cells) [µM]
COc1cc2ccsc2cc1CCNc1cc(-c2ccc(C(=O)O)c(SC)c2)ncn1 [Ex 152, 4-{6-[2-(5-Methoxy-benzo[b]thiophen-6-yl)-ethylamino]-pyrimidin-4-yl}-2-methylsulfanyl-benzoic acid]	0.119	0.111	0.145	0.352	
CCOc1cc(-c2cc(NCCc3ccc4ccccc4c3C)ncn2)sc1C(=O)NS(N)(=O)=O [Example 354, 3-Ethoxy-5-(6-((2-(1-methylnaphthalen-2-yl)ethyl)amino)pyrimidin-4-yl)-N-sulfamoylthiophene-2-carboxamide]	0.041	0.027	0.056	0.032	
CCSc1cc(-c2cc(NCCc3cc4ccoc4cc3OC)ncn2)ccc1C(=O)O [Ex 158, 2-Ethylsulfanyl-4-{6-[2-(6-methoxy-benzofuran-5-yl)-ethylamino]-pyrimidin-4-yl}-benzoic acid]	0.023	0.016	0.157	0.185	
CSc1cc(-c2cc(NCCc3ccc4cc[nH]c4c3)ncn2)ccc1C(=O)O [Ex 328, 4-{6-[2-(1H-Indol-6-yl)-ethylamino]-pyrimidin-4-yl}-2-methylsulfanyl-benzoic acid]	0.287	0.108	0.938	0.919	
COc1cc2sccc2cc1CCNc1cc(-c2ccc(C(=O)O)c(SC)c2)ncn1 [Ex 18, 4-{6-[2-(6-Methoxy-benzo[b]thiophen-5-yl)-ethylamino]-pyrimidin-4-yl}-2-methylsulfanyl-benzoic acid]	0.006	0.004	0.01	0.07	
C#Cc1cc2ccccc2cc1CCNc1cc(-c2ccc(OCC(=O)O)c(OCC)c2)ncn1 [Ex 103, (2-Ethoxy-4-{6-[2-(3-ethynyl-naphthalen-2-yl)-ethylamino]-pyrimidin-4-yl}-phenoxy)-acetic acid]	0.051	0.089	0.071	0.018	
CSc1cc(-c2cc(NCCc3cc(Cl)c4sccc4c3)ncn2)ccc1C(=O)O [Example 360, 4-{6-[2-(7-Chloro-benzo[b]thiophen-5-yl)-ethylamino]-pyrimidin-4-yl}-2-methylsulfanyl-benzoic acid]	0.137	0.183	0.044	0.069	
CCOc1cc(-c2cc(NCCc3cc4cccnc4cc3F)ncn2)sc1-c1noc(=O)[nH]1 [Example 348, 3-(3-Ethoxy-5-{6-[2-(7-fluoro-quinolin-6-yl)-ethylamino]-pyrimidin-4-yl}-thiophen-2-yl)-[1,2,4]oxadiazol-5(4H)-one]	0.172	0.113	0.008	0.002	
CCOc1cc(-c2cc(NCCc3ccc4cc[nH]c4c3)ncn2)sc1-c1noc(=O)[nH]1 [Example 343, 3-(3-Ethoxy-5-{6-[2-(1H-indol-6-yl)-ethylamino]-pyrimidin-4-yl}-thiophen-2-yl)-[1,2,4]oxadiazol-5(4H)-one]	0.009	0.023	0.012	0.002	
CCCc1cc(-c2cc(NCCc3ccc4ccccc4c3C)ncn2)cc(F)c1C(=O)O [Ex 74, 2-Fluoro-4-{6-[2-(1-methyl-naphthalen-2-yl)-ethylamino]-pyrimidin-4-yl}-6-propyl-benzoic acid]	0.45	0.151	0.04	0.257	
Cc1c(CCNc2cc(-c3cc4c(C(=O)O)cccc4[nH]3)ncn2)ccc2ccccc12 [Ex 127, 2-{6-[2-(1-Methyl-naphthalen-2-yl)-ethylamino]-pyrimidin-4-yl}-1H-indole-4-carboxylic acid]	0.181	0.101	0.103	0.109	
CCOc1cc(-c2cc(NCCc3cc4c(cc3OC(F)F)OCO4)ncn2)sc1C(=O)O [Ex 119, 5-{6-[2-(6-Difluoromethoxy-benzo[1,3]dioxol-5-yl)-ethylamino]-pyrimidin-4-yl}-3-ethoxy-thiophene-2-carboxylic acid]	0.032	0.041	0.09	0.113	
CC(C)COc1cc(-c2cc(NCCc3cc(F)c4sccc4c3)ncn2)ccc1C(=O)O [Example 453, 4-{6-[2-(7-Fluoro-benzo[b]thiophen-5-yl)-ethylamino]-pyrimidin-4-yl}-2-isobutoxy-benzoic acid]	0.102	0.281		0.07	0.118
CCOc1cc(-c2cc(NCCc3cc(Cl)c4sccc4c3)ncn2)sc1C(=O)O [Example 359, 5-{6-[2-(7-Chloro-benzo[b]thiophen-5-yl)-ethylamino]-pyrimidin-4-yl}-3-ethoxy-thiophene-2-carboxylic acid]	0.04	0.061	0.002	0.009	
CCOc1cc(-c2cc(NCCc3ccc4scc(C)c4c3)ncn2)ccc1C(=O)O [Example 465, 2-Ethoxy-4-{6-[2-(3-methyl-benzo[b]thiophen-5-yl)-ethylamino]-pyrimidin-4-yl}-benzoic acid]	0.313	0.245		0.827	1.4
CCc1nc(-c2cc(NCCc3ccc4ccccc4c3C)ncn2)sc1C(=O)O [Example 351, 4-Ethyl-2-{6-[2-(1-methyl-naphthalen-2-yl)-ethylamino]-pyrimidin-4-yl}-thiazole-5-carboxylic acid]	0.475	0.236	0.167	0.079	
CCOc1cc(-c2cc(NCCc3cc(Cl)c4c(c3)OCCO4)ncn2)sc1C(=O)O [Ex 51, 5-{6-[2-(8-Chloro-2,3-dihydro-benzo[1,4]dioxin-6-yl)-ethylamino]-pyrimidin-4-yl}-3-ethoxy-thiophene-2-carboxylic acid]	0.23	0.207	0.025	0.022	
CCOc1cc2c(cc1CCNc1cc(-c3ccc(C(=O)O)c(OCC)c3)ncn1)OCCO2 [Ex 261, 2-Ethoxy-4-{6-[2-(7-ethoxy-2,3-dihydro-benzo[1,4]dioxin-6-yl)-ethylamino]-pyrimidin-4-yl}-benzoic acid]	0.053	0.02	0.406	0.396	
CCOc1cc(-c2cc(NCCc3ccc4sccc4c3)ncn2)ccc1CC(=O)O [Ex 189]	0.158	0.53	0.208	0.108	
CCOc1cc(-c2cc(NCCc3ccc4[nH]ccc4c3)ncn2)sc1-c1noc(=O)[nH]1 [Example 339, 3-(3-Ethoxy-5-{6-[2-(1H-indol-5-yl)-ethylamino]-pyrimidin-4-yl}-thiophen-2-yl)-[1,2,4]oxadiazol-5(4H)-one]	0.066	0.09	0.022	0.01	
CCOc1cc(-c2cc(NCCc3ccc4scc(C)c4c3)ncn2)ccc1OCC(=O)O [Example 466, (2-Ethoxy-4-{6-[2-(3-methyl-benzo[b]thiophen-5-yl)-ethylamino]-pyrimidin-4-yl}-phenoxy)-acetic acid]	0.206	0.19		0.171	1.21
CCOc1cc(-c2cc(NCCc3cc4ccsc4cc3C)ncn2)ccc1C(=O)O [Ex 254, 2-Ethoxy-4-{6-[2-(6-methyl-benzo[b]thiophen-5-yl)-ethylamino]-pyrimidin-4-yl}-benzoic acid]	0.045	0.07	0.379	0.864	
COc1cc2c(cc1CCNc1cc(-c3ccc4oc(C(=O)O)cc4c3)ncn1)OCCO2 [Ex 93, 5-{6-[2-(7-Methoxy-2,3-dihydro-benzo[1,4]dioxin-6-yl)-ethylamino]-pyrimidin-4-yl}-benzofuran-2-carboxylic acid]	0.275	0.085	0.118	1.26	
CCOc1cc(-c2cc(NCCc3ccc4ccccc4c3C)ncn2)ccc1C(=O)O [Ex 172, 2-Ethoxy-4-{6-[2-(1-methyl-naphthalen-2-yl)-ethylamino]-pyrimidin-4-yl}-benzoic acid]	0.157	0.137	0.181	0.287	
CCc1cc(-c2cc(NCCc3cc(F)c4sccc4c3)ncn2)sc1C(=O)O [Example 455, 3-Ethyl-5-{6-[2-(7-fluoro-benzo[b]thiophen-5-yl)-ethylamino]-pyrimidin-4-yl}-thiophene-2-carboxylic acid]	0.271	0.25		0.018	0.038
CCOc1cc(-c2cc(NCCc3ccc4ccccc4c3C)ncn2)ccc1-c1nnn[nH]1 [Ex 156]	0.107	0.221	0.154	0.036	
CCOc1cc(-c2cc(NCCc3ccc4scc(C)c4c3)ncn2)sc1C(=O)O [Ex 47, 3-Ethoxy-5-{6-[2-(3-methyl-benzo[b]thiophen-5-yl)-ethylamino]-pyrimidin-4-yl}-thiophene-2-carboxylic acid]	0.045	0.091	0.022	0.085	
COc1cc2occc2cc1CCNc1cc(-c2ccc(C(=O)O)c(SC)c2)ncn1 [Ex 193, 4-{6-[2-(6-Methoxy-benzofuran-5-yl)-ethylamino]-pyrimidin-4-yl}-2-methylsulfanyl-benzoic acid]	0.01	0.012	0.211	0.349	
